Three compounds from patent US5206428A, “Tetrahydronaphthalene derivatives and preparation thereof” (Tanabe Seiyaku Co., Ltd., priority 1989, dated 1993) can be followed below.

Molecules are shown by their SMILES. Converted amounts (≈) assume the structure as drawn.

In this experiment the test system is U-46619-induced platelet aggregation. Nature of the experiment: U-46619-induced platelet aggregation-inhibiting activity (in vitro). The experiment is classed as cell-based. The following applies: human platelet-rich plasma, 4×10^5 cells/mm^3, U-46619 solution (0.2 μg/ml), 37° C., Born's method. As to the method:
The bottom layer was further centrifuged to give platelet-poor plasma ("PPP") as the supernatant. PRP was diluted with PPP so that the platelet count was 4×10^5 cells/mm^3. 25 μl of a test compound solution was added to 200 μl of said diluted PRP.
Broadly, the IC50 is the midpoint of a concentration-inhibition curve. High values mean a need for much substance, low ones inhibition by little substance. `Cc1ccc(S(=O)(=O)NC2CCc3cc(CC(=O)NCCC(=O)O)ccc3C2)cc1` (stereo not drawn) [Compound No. 1] registered an IC50 of 0.2 µg/mL (≈ 0.465 µM). In turn, `O=C([O-])Cc1ccc2c(c1)CCC(NS(=O)(=O)c1ccc(Cl)cc1)C2.[Na+]` (stereo not drawn) [Compound No. 2, Sodium 6(4-chlorophenyl)sulfonylamino-5,6,7,8-tetrahydronaphthalene-2-acetate] returned an IC50 of 0.06 µg/mL. Under `O=C(O)CCCNC(=O)Cc1ccc2c(c1)CCC(NS(=O)(=O)c1ccc(Cl)cc1)C2` (stereo not drawn) [Compound No. 3] stands 0.7 µg/mL (≈ 1.51 µM).
